Values quoted from earlier work, collected in patent publication US20210386111A1, “AEROSOLISABLE FORMULATION” (NICOVENTURES TRADING LIMITED, priority 2018, published 2021).

2-hydroxy-propyl-β-cyclodextrin
solubility in water compared to base cyclodextrins such as β-cyclodextrin: increased solubility in water
